Test results published in patent publication EP3717657B1, “A SYSTEM FOR ASSESSING MICROBIAL SUSCEPTIBILITY TO ANTIBIOTIC AGENTS” (Ascilion AB, priority 2017, dated 2019).

Assays:
[1] = test system: Enterococcus faecalis (ATCC 29212); assay: Antibiotic susceptibility by glucose consumption in culture medium, blood culture bottle inoculum (Example 1); type: cell-based; conditions: for Glucose concentration t=0: 0 minutes; for Glucose concentration t=60: 60 minutes; for Glucose concentration t=120: 120 minutes; for Glucose concentration t=180: 180 minutes; for dC/dT: rate of change in glucose concentration; for Glucose concentration t=240: 240 minutes;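 for dC/dT: rate calculated between the 60 and 180 min readings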
Protocol: (§1) Strains of Escherichia coli (ATCC 25922), Enterococcus faecalis (ATCC 29212) and Staphylococcus aureus (ATCC 29213) were inoculated in blood culture bottles (SVA, Uppsala, Sweden) and cultivated according to the manufacturer's instructions until positive.
(§2) Medium from each blood culture bottle was diluted 1:100 with cation adjusted Mueller-Hinton broth (SVA, Uppsala, Sweden) supplemented with glucose to a concentration of 1.0 mg/mL.
(§3) Table 1: Concentrations of antibiotic agents are given in µg/mL.
(§4) Glucose concentrations were measured at 0, 60, 120, 180, and 240 minutes using a WaveSense Jazz glucometer (AgaMatrix, Inc., Salem, NH, USA) with accompanying test strips.
(§5) Susceptibility scores corresponding to MIC values were calculated as described above. A 80% threshold was applied, i.e. the lowest concentration of antibiotic that entailed a rate of change in glucose concentration that was equal to or less than 80% of the reference was selected as the Minimal Inhibitory Concentration. The rate of change was calculated between the measurements at 60 and 180 minutes.

[2] = test system: Escherichia coli (ATCC 25922); assay: as above; type: cell-based; conditions: for Glucose concentration t=60: 60 minutes; for Glucose concentration t=120: 120 minutes; for Glucose concentration t=180: 180 minutes; for dC/dT: rate of change in glucose concentration;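 for dC/dT: rate calculated between the 60 and 180 min readings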
Protocol: as §1, §2, §3, §4, §5

CN[C@H](CC(C)C)C(=O)N[C@H]1C(=O)N[C@@H](CC(N)=O)C(=O)N[C@H]2C(=O)N[C@H]3C(=O)N[C@H](C(=O)N[C@H](C(=O)O)c4cc(O)cc(O)c4-c4cc3ccc4O)[C@H](O)c3ccc(c(Cl)c3)Oc3cc2cc(c3O[C@@H]2O[C@H](CO)[C@@H](O)[C@H](O)[C@H]2O[C@H]2C[C@](C)(N)[C@H](O)[C@H](C)O2)Oc2ccc(cc2Cl)[C@H]1O [Vancomycin]
F=the rate of change in glucose concentration in relation to the reference ([1]; [Ab] 0,5 µg/mL): 82% | Glucose concentration t=0 ([1]; [Ab] 0,5 µg/mL): 154 | Glucose concentration t=60 ([1]; [Ab] 0,5 µg/mL): 155 | Glucose concentration t=120 ([1]; [Ab] 0,5 µg/mL): 148 | Glucose concentration t=180 ([1]; [Ab] 0,5 µg/mL): 96 | dC/dT ([1]; [Ab] 0,5 µg/mL): 30 | F=the rate of change in glucose concentration in relation to the reference ([1]; [Ab] 0,25 µg/mL): 82% | Glucose concentration t=0 ([1]; [Ab] 0,25 µg/mL): 143 | Glucose concentration t=60 ([1]; [Ab] 0,25 µg/mL): 155 | Glucose concentration t=120 ([1]; [Ab] 0,25 µg/mL): 146 | Glucose concentration t=180 ([1]; [Ab] 0,25 µg/mL): 96 | dC/dT ([1]; [Ab] 0,25 µg/mL): 30 | F=the rate of change in glucose concentration in relation to the reference ([1]; [Ab] 1 µg/mL): 75% | Glucose concentration t=0 ([1]; [Ab] 1 µg/mL): 151 | Glucose concentration t=60 ([1]; [Ab] 1 µg/mL): 164 | Glucose concentration t=120 ([1]; [Ab] 1 µg/mL): 153 | Glucose concentration t=180 ([1]; [Ab] 1 µg/mL): 110 | dC/dT ([1]; [Ab] 1 µg/mL): 27 | F=the rate of change in glucose concentration in relation to the reference ([1]; [Ab] 2 µg/mL): 29% | Glucose concentration t=0 ([1]; [Ab] 2 µg/mL): 147 | Glucose concentration t=60 ([1]; [Ab] 2 µg/mL): 160 | Glucose concentration t=120 ([1]; [Ab] 2 µg/mL): 152 | Glucose concentration t=180 ([1]; [Ab] 2 µg/mL): 139 | Glucose concentration t=240 ([1]; [Ab] 2 µg/mL): 94 | dC/dT ([1]; [Ab] 2 µg/mL): 11 | F=the rate of change in glucose concentration in relation to the reference ([1]; [Ab] 4 µg/mL): 19% | Glucose concentration t=0 ([1]; [Ab] 4 µg/mL): 147 | Glucose concentration t=60 ([1]; [Ab] 4 µg/mL): 162 | Glucose concentration t=120 ([1]; [Ab] 4 µg/mL): 153 | Glucose concentration t=180 ([1]; [Ab] 4 µg/mL): 148 | Glucose concentration t=240 ([1]; [Ab] 4 µg/mL): 149 | dC/dT ([1]; [Ab] 4 µg/mL): 7 | F=the rate of change in glucose concentration in relation to the reference ([1]; [Ab] 8 µg/mL): 7% | Glucose concentration t=0 ([1]; [Ab] 8 µg/mL): 150 | Glucose concentration t=60 ([1]; [Ab] 8 µg/mL): 156 | Glucose concentration t=120 ([1]; [Ab] 8 µg/mL): 146 | Glucose concentration t=180 ([1]; [Ab] 8 µg/mL): 151 | Glucose concentration t=240 ([1]; [Ab] 8 µg/mL): 145 | dC/dT ([1]; [Ab] 8 µg/mL): 3 | F=the rate of change in glucose concentration in relation to the reference ([1]; [Ab] 0,125 µg/mL): 83% | Glucose concentration t=0 ([1]; [Ab] 0,125 µg/mL): 148 | Glucose concentration t=60 ([1]; [Ab] 0,125 µg/mL): 154 | Glucose concentration t=120 ([1]; [Ab] 0,125 µg/mL): 149 | Glucose concentration t=180 ([1]; [Ab] 0,125 µg/mL): 94 | dC/dT ([1]; [Ab] 0,125 µg/mL): 30 | F=the rate of change in glucose concentration in relation to the reference ([1]; [Ab] 0,0625 µg/mL): 93% | Glucose concentration t=0 ([1]; [Ab] 0,0625 µg/mL): 145 | Glucose concentration t=60 ([1]; [Ab] 0,0625 µg/mL): 156 | Glucose concentration t=120 ([1]; [Ab] 0,0625 µg/mL): 139 | Glucose concentration t=180 ([1]; [Ab] 0,0625 µg/mL): 89 | dC/dT ([1]; [Ab] 0,0625 µg/mL): 34 | F=the rate of change in glucose concentration in relation to the reference ([2]; [Ab] 0,5 µg/mL): 65% | Glucose concentration t=60 ([2]; [Ab] 0,5 µg/mL): 149 | Glucose concentration t=120 ([2]; [Ab] 0,5 µg/mL): 145 | Glucose concentration t=180 ([2]; [Ab] 0,5 µg/mL): 68 | dC/dT ([2]; [Ab] 0,5 µg/mL): 41 | F=the rate of change in glucose concentration in relation to the reference ([2]; [Ab] 0,25 µg/mL): 68% | Glucose concentration t=60 ([2]; [Ab] 0,25 µg/mL): 150 | Glucose concentration t=120 ([2]; [Ab] 0,25 µg/mL): 145 | Glucose concentration t=180 ([2]; [Ab] 0,25 µg/mL): 66 | dC/dT ([2]; [Ab] 0,25 µg/mL): 42 | F=the rate of change in glucose concentration in relation to the reference ([2]; [Ab] 1 µg/mL): 73% | Glucose concentration t=60 ([2]; [Ab] 1 µg/mL): 155 | Glucose concentration t=120 ([2]; [Ab] 1 µg/mL): 149 | Glucose concentration t=180 ([2]; [Ab] 1 µg/mL): 65 | dC/dT ([2]; [Ab] 1 µg/mL): 45 | F=the rate of change in glucose concentration in relation to the reference ([2]; [Ab] 2 µg/mL): 65% | Glucose concentration t=60 ([2]; [Ab] 2 µg/mL): 147 | Glucose concentration t=120 ([2]; [Ab] 2 µg/mL): 151 | Glucose concentration t=180 ([2]; [Ab] 2 µg/mL): 67 | dC/dT ([2]; [Ab] 2 µg/mL): 40 | F=the rate of change in glucose concentration in relation to the reference ([2]; [Ab] 4 µg/mL): 69% | Glucose concentration t=60 ([2]; [Ab] 4 µg/mL): 147 | Glucose concentration t=120 ([2]; [Ab] 4 µg/mL): 145 | Glucose concentration t=180 ([2]; [Ab] 4 µg/mL): 61 | dC/dT ([2]; [Ab] 4 µg/mL): 43 | F=the rate of change in glucose concentration in relation to the reference ([2]; [Ab] 8 µg/mL): 87% | Glucose concentration t=60 ([2]; [Ab] 8 µg/mL): 159 | Glucose concentration t=120 ([2]; [Ab] 8 µg/mL): 147 | Glucose concentration t=180 ([2]; [Ab] 8 µg/mL): 51 | dC/dT ([2]; [Ab] 8 µg/mL): 54 | F=the rate of change in glucose concentration in relation to the reference ([2]; [Ab] 0,125 µg/mL): 71% | Glucose concentration t=60 ([2]; [Ab] 0,125 µg/mL): 153 | Glucose concentration t=120 ([2]; [Ab] 0,125 µg/mL): 154 | Glucose concentration t=180 ([2]; [Ab] 0,125 µg/mL): 65 | dC/dT ([2]; [Ab] 0,125 µg/mL): 44 | F=the rate of change in glucose concentration in relation to the reference ([2]; [Ab] 0,0625 µg/mL): 67% | Glucose concentration t=60 ([2]; [Ab] 0,0625 µg/mL): 148 | Glucose concentration t=120 ([2]; [Ab] 0,0625 µg/mL): 144 | Glucose concentration t=180 ([2]; [Ab] 0,0625 µg/mL): 65 | dC/dT ([2]; [Ab] 0,0625 µg/mL): 42
